Laboratory results taken from US11858941B2, “Heterocyclic and heteroaryl compounds for treating Huntington's disease” (PTC THERAPEUTICS, INC., priority 2018, dated 2024).

System: Endogenous Huntingtin Protein
Assay: Endogenous Huntingtin Protein Assay (Meso Scale Discovery ELISA-based electrochemiluminescence)
Format: cell-based
Details: MSD plates coated with MW1 (expanded polyglutamine) or MAB2166 capture antibody; lysates
How it was run: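 MSD electrochemiluminescence sandwich ELISA: MW1 (expanded polyQ) or MAB2166 capture antibody at 1 μg/mL, samples incubated overnight at 4° C. Detection with rabbit monoclonal #5656S then SULFO-TAG anti-rabbit antibody, each 0.25 μg/mL for 1 h at room temperature.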

CC1(C)CC(n2nnc3cc(-c4ccc(-c5ccc6nccn6n5)cc4O)nnc32)CC(C)(C)N1 [Cpd 162, 5-(imidazo[1,2-b]pyridazin-6-yl)-2-(3-(2,2,6,6-tetramethylpiperidin-4-yl)-3H-[1,2,3]triazolo[4,5-c]pyridazin-6-yl)phenol]
IC50: ≤ 100 nM

CC1(C)CC(n2nnc3cc(-c4ccc(-c5cnccn5)cc4O)nnc32)CC(C)(C)N1 [Cpd 60, 5-(pyrazin-2-yl)-2-[3-(2,2,6,6-tetramethylpiperidin-4-yl)-3H-[1,2,3]triazolo[4,5-c]pyridazin-6-yl]phenol]
IC50: 1000 to 3000 nM

CCNc1nc2cc(-c3ccc(-c4cn[nH]c4)cc3O)nnc2n1C1CC(C)(C)NC(C)(C)C1 [Cpd 49, 2-[6-(ethylamino)-7-(2,2,6,6-tetramethylpiperidin-4-yl)-7H-imidazo[4,5-c]pyridazin-3-yl]-5-(1H-pyrazol-4-yl)phenol]
IC50: 1000 to 3000 nM

CC1(C)C[C@H](n2nnc3cc(-c4ccc(-c5cn[nH]c5)cc4O)nnc32)[C@H](F)C(C)(C)N1 [Cpd 164, 2-{3-[(3S,4S)-3-fluoro-2,2,6,6-tetramethylpiperidin-4-yl]-3H-[1,2,3]triazolo[4,5-c]pyridazin-6-yl}-5-(1H-pyrazol-4-yl)phenol]
IC50: ≤ 100 nM

Cn1cc(-c2ccc(-c3cc4cnn(C5CC(C)(C)NC(C)(C)C5)c4nn3)c(O)c2)c(F)n1 [Cpd 148]
IC50: ≤ 100 nM

CCOc1cc(-c2ccc(-c3cc4nnn(C5CC(C)(C)NC(C)(C)C5)c4nn3)c(O)c2)ncn1 [Cpd 124, 5-(6-ethoxypyrimidin-4-yl)-2-[3-(2,2,6,6-tetramethylpiperidin-4-yl)-3H-[1,2,3]triazolo[4,5-c]pyridazin-6-yl]phenol]
IC50: ≤ 100 nM

CC1(C)CC(n2nnc3cc(-c4ccc(-c5ncc[nH]5)cc4O)nnc32)CC(C)(C)N1 [Cpd 91, 5-(1H-imidazol-2-yl)-2-[3-(2,2,6,6-tetramethylpiperidin-4-yl)-3H-[1,2,3]triazolo[4,5-c]pyridazin-6-yl]phenol]
IC50: 1000 to 3000 nM

Oc1cc(-c2cn[nH]c2)ccc1-c1cc2cnn(C3CCNCC3)c2nn1 [Cpd 21, 2-[1-(piperidin-4-yl)-1H-pyrazolo[3,4-c]pyridazin-5-yl]-5-(1H-pyrazol-4-yl)phenol]
IC50: 1000 to 3000 nM

CC1(C)CC(n2c(O)nc3cc(-c4ccc(-c5cn[nH]c5)cc4O)nnc32)CC(C)(C)N1 [Cpd 9, 3-[2-hydroxy-4-(1H-pyrazol-4-yl)phenyl]-7-(2,2,6,6-tetramethylpiperidin-4-yl)-7H-imidazo[4,5-c]pyridazin-6-ol]
IC50: 1000 to 3000 nM

CC1(C)C[C@H](n2nnc3cc(-c4ccc(-c5c[nH]nc5F)cc4O)nnc32)[C@H](F)C(C)(C)N1 [Cpd 173, 5-(3-fluoro-1H-pyrazol-4-yl)-2-{3-[(3S,4S)-3-fluoro-2,2,6,6-tetramethylpiperidin-4-yl]-3H-[1,2,3]triazolo[4,5-c]pyridazin-6-yl}phenol]
IC50: ≤ 100 nM

Cc1ncc(-c2ccc(-c3cc4nnn(C5CC(C)(C)NC(C)(C)C5)c4nn3)c(O)c2)s1 [Cpd 150, 5-(2-methyl-1,3-thiazol-5-yl)-2-[3-(2,2,6,6-tetramethylpiperidin-4-yl)-3H-[1,2,3]triazolo[4,5-c]pyridazin-6-yl]phenol]
IC50: ≤ 100 nM

CC1(C)CC(n2nnc3cc(-c4cc5cccnc5cc4O)nnc32)CC(C)(C)N1 [Cpd 81, 6-[3-(2,2,6,6-tetramethylpiperidin-4-yl)-3H-[1,2,3]triazolo[4,5-c]pyridazin-6-yl]quinolin-7-ol]
IC50: 1000 to 3000 nM

CC1(C)CC(n2nnc3cc(-c4ccc(-c5ncns5)cc4O)nnc32)CC(C)(C)N1 [Cpd 134, 2-[3-(2,2,6,6-tetramethylpiperidin-4-yl)-3H-[1,2,3]triazolo[4,5-c]pyridazin-6-yl]-5-(1,2,4-thiadiazol-5-yl)phenol]
IC50: ≤ 100 nM

CC1(C)CC(c2csc3cc(-c4ccc(-c5cn[nH]c5)cc4O)nnc23)CC(C)(C)N1 [Cpd 24, 5-(1H-pyrazol-4-yl)-2-[7-(2,2,6,6-tetramethylpiperidin-4-yl)thieno[3,2-c]pyridazin-3-yl]phenol]
IC50: ≤ 100 nM

CC1(C)CC(n2nnc3cc(-c4cc(F)c(-c5ccncc5)cc4O)nnc32)CC(C)(C)N1 [Cpd 87, 4-fluoro-5-(pyridin-4-yl)-2-[3-(2,2,6,6-tetramethylpiperidin-4-yl)-3H-[1,2,3]triazolo[4,5-c]pyridazin-6-yl]phenol]
IC50: 100 to 500 nM

CC1(C)CC(n2nnc3cc(-c4ccc(-c5cncs5)cc4O)nnc32)CC(C)(C)N1 [Cpd 107, 2-[3-(2,2,6,6-tetramethylpiperidin-4-yl)-3H-[1,2,3]triazolo[4,5-c]pyridazin-6-yl]-5-(1,3-thiazol-5-yl)phenol]
IC50: ≤ 100 nM

CC1(C)CC(N2CCc3cc(-c4ccc(-c5cn[nH]c5)c(F)c4F)nnc32)CC(C)(C)N1 [Cpd 32, 3-[2,3-difluoro-4-(1H-pyrazol-4-yl)phenyl]-7-(2,2,6,6-tetramethylpiperidin-4-yl)-6,7-dihydro-5H-pyrrolo[2,3-c]pyridazine]
IC50: 100 to 500 nM

CC1(C)CC(n2nnc3cc(-c4ccc(-c5cc[nH]n5)cc4O)nnc32)CC(C)(C)N1 [Cpd 48, 5-(1H-pyrazol-3-yl)-2-[3-(2,2,6,6-tetramethylpiperidin-4-yl)-3H-[1,2,3]triazolo[4,5-c]pyridazin-6-yl]phenol]
IC50: 100 to 500 nM

Oc1cc(-c2cn[nH]c2)ccc1-c1cc2[nH]cc(C3=CCNCC3)c2nn1 [Cpd 11, 5-(1H-pyrazol-4-yl)-2-[7-(1,2,3,6-tetrahydropyridin-4-yl)-5H-pyrrolo[3,2-c]pyridazin-3-yl]phenol]
IC50: 1000 to 3000 nM

Cc1ncc(-c2ccc(-c3cc4nnn(C5CC(C)(C)NC(C)(C)C5)c4nn3)c(O)c2)o1 [Cpd 158, 5-(2-methyl-1,3-oxazol-5-yl)-2-[3-(2,2,6,6-tetramethylpiperidin-4-yl)-3H-[1,2,3]triazolo[4,5-c]pyridazin-6-yl]phenol]
IC50: ≤ 100 nM

Cn1ccc(-c2ccc(-c3cc4cnn(C5CC(C)(C)NC(C)(C)C5)c4nn3)c(O)c2)n1 [Cpd 169, 5-(1-methyl-1H-pyrazol-3-yl)-2-[1-(2,2,6,6-tetramethylpiperidin-4-yl)-1H-pyrazolo[3,4-c]pyridazin-5-yl]phenol]
IC50: ≤ 100 nM

CC(C)(C)NC1CC(n2nnc3cc(-c4ccc(-c5cn[nH]c5)cc4O)nnc32)C1 (stereo not shown) [Cpd 170, 2-{3-[3-(tert-butylamino)cyclobutyl]-3H-[1,2,3]triazolo[4,5-c]pyridazin-6-yl}-5-(1H-pyrazol-4-yl)phenol]
IC50: 1000 to 3000 nM

Cn1cnc2cc(-c3cc4nnn(C5CC(C)(C)NC(C)(C)C5)c4nn3)c(O)cc21 [Cpd 92, 1-methyl-5-[3-(2,2,6,6-tetramethylpiperidin-4-yl)-3H-[1,2,3]triazolo[4,5-c]pyridazin-6-yl]-1H-benzimidazol-6-ol]
IC50: 1000 to 3000 nM

CCOc1cc(-c2ccc(-c3cc4nnn(C5CC(C)(C)NC(C)(C)C5)c4nn3)c(O)c2)ccn1 [Cpd 123, 5-(2-ethoxypyridin-4-yl)-2-[3-(2,2,6,6-tetramethylpiperidin-4-yl)-3H-[1,2,3]triazolo[4,5-c]pyridazin-6-yl]phenol]
IC50: 3000 to 9000 nM

COc1nccc(-c2ccc(-c3cc4nnn(C5CC(C)(C)NC(C)(C)C5)c4nn3)c(O)c2)n1 [Cpd 119, 5-(2-methoxypyrimidin-4-yl)-2-[3-(2,2,6,6-tetramethylpiperidin-4-yl)-3H-[1,2,3]triazolo[4,5-c]pyridazin-6-yl]phenol]
IC50: 100 to 500 nM
